Literature values as cited in patent US9687454B2, “Sublingual and buccal film compositions” (Indivior UK Limited, priority 2009, dated 2017).

Conditions: known value

Compound: C=CCN1CC[C@]23c4c5ccc(O)c4O[C@H]2C(=O)CC[C@@]3(O)[C@H]1C5 [naloxone]
- pKa: about 7.94
